The results in this text go back to patent US8883798B2, “Pyrimidine compounds inhibiting the formation of nitric oxide and prostaglandin E2, method of production thereof and use thereof” (Ustav Organicke Chemie a Biochemie Akademie Ved CR, V.V.I., priority 2011, dated 2014).

Data set [1] concerns Salmonella typhimurium TA 98 and TA 100, Escherichia coli WP2 uvrA. As to the method: With compound 28, its possible mutagenicity (genotoxicity) was assessed using the standard bacterial reverse mutation test. According to Council Regulation (ES) No. 440/2008, stipulating the test methods according to the European Parliament and Council regulation (ES), the method used was B.13/14, Mutagenicity—Reverse Mutation Test Using Bacteria, which is described in the same way also in the OECD Test Guideline No. 471.
[…] The experiments were conducted without using metabolic activation and after activation with supernatant S9 from […] livers and with mixtures of cofactors (NADP and glucoso-6-phosphate) to determine the mutagenicity of the metabolic products of the compound tested. Supernatant S9 was prepared according to the literature [Mutat. Res. 113, 173-215, 1983].
The principle of the test is to detect possible revertants created by reverse mutation, which would be induced in the bacterial culture by the tested compound. Specially constructed bacterial strains are used, carrying mutations in the place for his (trp), which are not capable of forming colonies on the minimum plates without histidine or tryptophan. […] Mutagenic potential is given by the growing number of revertants in the influenced groups in comparison with a negative control, and/or in dependence on the growing number of revertants on the dose of the tested compound.
Bacterial testers, types Salmonella typhimurium TA 98 (CCM 3811) and Escherichia coli WP2 uvrA (CCM 4751), were acquired from the Czech Collection of Microorganisms of Masaryk University, Brno and the strain Salmonella typhimurium TA100 (CIP 103796, lot No. 1008) from the Biological Resource Center, Institut Pasteur in Paris (CRBIP).

For data set [2], the system named is production of nitric oxide (NO). Description: Production of nitric oxide (NO) in cultures of mouse peritoneal cells stimulated with IFN-γ plus LPS (Griess reagent). The settings on record: Table 3A; substance 50 μmol·l^−1; IFN-g plus LPS; 24 h. The data set is classed as cell-based, mice. In a few lines: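 C57BL/6 mouse peritoneal cells (2×10^6/mL) stimulated with IFN-γ (5000 pg/mL) plus LPS (100 pg/mL), compounds at 50 μmol·l^−1. Nitrite measured by Griess reagent after 24 h, expressed as % of stimulated control (set 100%); IC50 is concentration reducing NO by 50%.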
In general terms: Nitrite, measured by Griess reagent, commonly stands in for NO production.

In data set [3] the test system is production of prostaglandin E2 (PGE2). Description: Production of prostaglandin E2 (PGE2) in cultures of mouse peritoneal cells stimulated with LPS (ELISA kit). The settings on record: Table 3A, substance 50 μmol·l^−1, 6 h. Format: cell-based, mice. In a few lines: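 C57BL/6 mouse peritoneal cells (3×10^6/mL) stimulated with LPS (10 ng/mL). PGE2 measured by ELISA.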
For orientation: ELISA stands for enzyme-linked immunosorbent assay.

Data set [4] relates to peritoneal cells of mice. The data set is described as follows: Cell viability of mouse peritoneal cells (WST-1 kit). The data set is classed as cell-based. Particulars: Table 3A, substance 50 μmol·l^−1, 24 h. In outline:
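C57BL/6 mouse peritoneal cells (1×10^6/mL) cultured 24 h with compounds at 50 μmol·l^−1. Viability read with WST-1 tetrazolium salt and expressed as percent of untreated control cells (100%).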
In general terms: Formazan colour is commonly taken as a measure of viable cells.

On to `C=CCc1c(Cl)nc(/N=C/N(C)C)nc1Cl` [Substance 17, 5-allyl-4,6-dichloro-2-{[(dimethylamino)methylene]amino}pyrimidine], for which the melting point lay within 80 to 81 °C.

Molecule `C#CCc1c(Cl)nc(/N=C/N(C)C)nc1Cl` [Substance 18, 4,6-dichloro-2-{[(dimethylamino)methylene]amino}-5-(prop-2-yn-1-yl)pyrimidine] came in with a melting point of 82 to 83 °C.

`O=CNc1nc(Cl)c(Cc2ccccc2)c(Cl)n1` [Substance 59, 5-benzyl-4,6-dichloro-2-formamidopyrimidine] came in with a melting point of 93 to 95 °C.

In the case of `O=CNc1nc(Cl)c(-c2ccccc2)c(Cl)n1` [Substance 56, 4,6-dichloro-2-formamido-5-phenylpyrimidine], the melting point was 95 to 96 °C.

In the case of `CCc1c(Cl)nc(N)nc1Cl` [Substance 26, 2-amino-4,6-dichloro-5-ethylpyrimidine], the melting point lay in the range of 183 to 185 °C.

Molecule `CCCCc1c(Cl)nc(N)nc1-c1cccnc1` [Substance 43, 2-amino-5-butyl-4-chloro-6-(pyridin-3-yl)pyrimidine] came in with a melting point of 189 to 190 °C.

`CCCCc1c(Cl)nc(N)nc1-c1cc2ccccc2o1` [Substance 44, 2-amino-4-(benzofuran-2-yl)-5-butyl-6-chloropyrimidine] yielded a melting point of 195 to 196 °C.

Turning to `C=CCc1c(Cl)nc(N)nc1Cl` [Substance 32, 5-allyl-2-amino-4,6-dichloropyrimidine], the melting point lay within 175 to 177 °C.

Turning to `CCC(C)c1c(Cl)nc(NC=O)nc1Cl` (stereo not drawn) [Substance 54, 5-(sec-butyl)-4,6-dichloro-2-formamidopyrimidine], the melting point was in the range of 92 to 93 °C.

In turn, `CCCCc1c(Cl)nc(N)nc1Cl` [Substance 28, 2-amino-5-butyl-4,6-dichloropyrimidine] showed a melting point of 169 to 170 °C.

As to `CCC(C)c1c(Cl)nc(/N=C/N(C)C)nc1Cl` (stereo not drawn) [Substance 21, 5-sec-butyl-4,6-dichloro-2-{[(dimethylamino)methylene]amino}pyrimidine], the melting point was in the range of 67 to 68 °C.

`CCCCc1c(-c2cc3ccccc3o2)nc(N)nc1-c1cc2ccccc2o1` [Substance 47, 2-amino-4,6-bis(benzofuran-2-yl)-5-butylpyrimidine] had a melting point of 142 to 144 °C.

In turn, `CCCc1c(Cl)nc(/N=C/N(C)C)nc1Cl` [Substance 15, 4,6-dichloro-2-{[(dimethylamino)methylene]amino}-5-propylpyrimidine] displayed a melting point of 76 to 78 °C.

As to `[N-]=[N+]=[N-]` [sodium azide, reference compound], in data set [1] (arrangement of FIG. 5 (TA 100), without metabolic activation, 1.5 μg), the “Number of revertants, positive control for −MA I” value was more than 500.

The molecule `CCCc1c(Cl)nc(N)nc1Cl` [Substance 27, 2-amino-4,6-dichloro-5-propylpyrimidine] displayed a melting point of 182 to 183 °C.

`Cc1c(Cl)nc(N)nc1Cl` [Substance 25, 2-amino-4,6-dichloro-5-methylpyrimidine]: the melting point is 189 to 190 °C.

Regarding `CN(C)/C=N/c1nc(Cl)c(-c2ccccc2)c(Cl)n1` [Substance 24, 4,6-dichloro-2-{[(dimethylamino)methylene]amino}-5-phenylpyrimidine], the melting point was 67 to 68 °C.

On to `CCC(C)c1c(Cl)nc(N)nc1Cl` (stereo not drawn) [Substance 30, 2-amino-5-(sec-butyl)-4,6-dichloropyrimidine], for which the melting point was 159 to 160 °C.

Turning to `CN(C)/C=N/c1nc(Cl)c(Cc2ccccc2)c(Cl)n1` [Substance 23, 5-benzyl-4,6-dichloro-2-{[(dimethylamino)methylene]amino}pyrimidine], the melting point was in the range of 63 to 65 °C.

In the case of `Nc1nc(Cl)c(Cc2ccccc2)c(Cl)n1` [Substance 34, 2-amino-5-benzyl-4,6-dichloropyrimidine], the melting point lay within 196 to 197 °C.

`CCc1c(Cl)nc(/N=C/N(C)C)nc1Cl` [Substance 14, 4,6-dichloro-5-ethyl-2-{[(dimethylamino)methylene]amino}pyrimidine]: the melting point lay in the range of 78 to 80 °C.

As to `C=CCc1c(Cl)nc(NC=O)nc1Cl` [Substance 57, 5-allyl-4,6-dichloro-2-formamidopyrimidine], the melting point fell in the range of 85 to 86 °C.

`CCCCc1c(Cl)ncnc1Cl` [Substance 61, 5-butyl-4,6-dichloropyrimidine] gave a melting point of 62 to 63 °C.

With `CC(C)c1c(Cl)nc(N)nc1Cl` [Substance 29, 2-amino-4,6-dichloro-5-isopropylpyrimidine], the melting point lay in the range of 175 to 176 °C.

Consider `CCCCc1c(Cl)nc(N)nc1-c1ccccc1` [Substance 41, 2-amino-5-butyl-4-chloro-6-phenylpyrimidine], for which the melting point was in the range of 183 to 185 °C.

Take `CCCCc1c(-c2ccccc2)nc(N)nc1-c1ccccc1` [Substance 45, 2-amino-5-butyl-4,6-diphenylpyrimidine]: the melting point is 154 to 155 °C.

In turn, `C#CCc1c(Cl)nc(N)nc1Cl` [Substance 33, 2-amino-4,6-dichloro-5-(prop-2-yn-1-yl)pyrimidine] registered a melting point of 159 to 161 °C.

On to `Nc1nc(Cl)c(-c2ccccc2)c(Cl)n1` [Substance 31, 2-amino-4,6-dichloro-5-phenylpyrimidine], for which the melting point was 193 to 195 °C.

Turning to `C=C(Cl)Cc1c(Cl)nc(NC=O)nc1Cl` [Substance 60, 4,6-dichloro-5-(2-chloroallyl)-2-formamidopyrimidine], the melting point was in the range of 113 to 115 °C.

As for `Cc1c(Cl)nc(/N=C/N(C)C)nc1Cl` [Substance 13, 4,6-dichloro-5-methyl-2-{[(dimethylamino)methylene]amino}pyrimidine], the melting point lay in the range of 84 to 86 °C.

As for `Nc1nc(Cl)c(Cc2ccccc2)c(Cl)n1` [Substance 34], in data set [2], the “Production of nitric oxide in % of the controls” value is on record as 50.57 ± 9.31 % of the controls. Besides, the “Production of prostaglandins in % of the controls” value in data set [3] is given as 3.71 ± 2.00 % of the controls. Moreover, in data set [4], the “Cell viability in % of the controls” value was 105.92 ± 20.65 % of the controls. For the same molecule, the “Mutagenicity (reverse mutation)” value in data set [1] (all strains, all tested concentrations, with and without metabolic activation) was “non-mutagenous”.

For `CCCc1c(Cl)nc(NC=O)nc1Cl` [Substance 50, 4,6-dichloro-2-formamido-5-propylpyrimidine], the melting point lay in the range of 92 to 94 °C.

As to `CCCCc1c(Cl)nc(NC=O)nc1Cl` [Substance 51, 5-butyl-4,6-dichloro-2-formamidopyrimidine], the melting point was 82 to 83 °C.

On to `CCCCc1c(Cl)nc(C)nc1Cl` [Substance 62, 5-butyl-4,6-dichloro-2-methylpyrimidine], for which the melting point was in the range of 50 to 51 °C.

The molecule `CC(C)c1c(Cl)nc(/N=C/N(C)C)nc1Cl` [Substance 16, 4,6-dichloro-5-isopropyl-2-{[(dimethylamino)methylene]amino}pyrimidine] gave a melting point of 77 to 78 °C.

Turning to `[2H]C([2H])([2H])C([2H])([2H])C([2H])([2H])C([2H])([2H])c1c(Cl)nc(NC=O)nc1Cl` [Substance 52, 5-(perdeutero-butyl)-4,6-dichloro-2-formamidopyrimidine], the melting point was 83 to 84 °C.

What is called melting point is the temperature, or range, at which the solid turns liquid.
